Source: patent US12275733B2, “Substituted pyrido[3,4-b]indoles for the treatment of cartilage disorders” (Sanofi, priority 2016, dated 2025)

Experiments:
ATDC5 cells = assay: Chondrogenesis activity assay in ATDC5 cells (collagen type II induction, immunofluorescence); type: cell-based, mouse; settings: Mus musculus; for EC50: collagen type II induction in ATDC5 cells, concentration reaching 50% of maximum induction; for Emax: maximum percent induction of collagen type II relative to internal reference compound at 10 μM, ATDC5 cells
Outline: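 Collagen type II was stained in fixed, permeabilized cells with an Alexa Fluor 488 secondary and measured by high-content fluorescence imaging. ATDC5 cells had 4 days at 37 °C in insulin-supplemented differentiation medium with compound, typically 40 nM–10 μM, 0.1% DMSO. DMSO wells and a 10 μM internal reference compound were used for normalization.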

[1] = test system: primary human chondrocyte pellet cultures; assay: Chondrogenesis activity assay in primary human chondrocyte pellet cultures (proteoglycan (aggrecan) induction, Blyscan assay); type: cell-based; settings: for EC50: 336 h, proteoglycan (aggrecan) induction, primary human chondrocyte pellets, 2 weeks culture; for Emax: Homo sapiens, Chondrocyte, maximum percent proteoglycan (aggrecan) induction relative to the internal reference compound at 10 μM
Description: B) Chondrogenesis Activity Assay in Primary Human Chondrocyte Pellet Cultures
In this assay human articular chondrocytes are harvested by enzymatic digestion from articular cartilage and passaged several times to dedifferentiate the chondrocytes and to propagate the cells. Cells are cultured as cell pellets in the presence of the compounds of the invention over 2 weeks, and the chondrogenic differentiation is quantified by the production of the chondrogenic marker aggrecan (proteoglycan).
In detail, primary chondrocytes were harvested by enzymatic digestion from cartilage of osteoarthritis patients undergoing knee joint replacement surgery, and cultured in vitro. Cells were passaged one or two times and aliquots were cryopreserved. To initiate chondrogenesis experiments, cell aliquots were thawn, cultured in Chondrocyte Growth Medium (CGM, Lonza, #CC-3216) and passaged twice to further propagate and dedifferentiate cells. Pellet cultures were initiated by seeding 2.5×10E5 cells per well into a 96-well deep well plate in 600 μl chondrocyte differentiation medium consisting of Dulbecco's Modified Eagle Medium (DMEM, Invitrogen, #41966), 1×ITS-solution (Insulin/Transferrin/sodium selenite; 100× solution: Invitrogen, #51500056), 5 μg/mL linoleic acid (Sigma, #L1012-1G), 1× nonessential amino acids (100× solution: Invitrogen, #11140); 10 nM Dexamethasone, 2 ng/ml TGF-β1 (transforming growth factor β1) and 10 μg/ml ascorbic acid. Cells were spun to pellets by centrifugation (10 min, 400×g). Test compounds dissolved in DMSO were added to yield increasing compound concentrations, typically from 40 nM to 10 μM, and a final DMSO concentration of 0.1%, and the cell pellets cultured at 37° C., and 5% CO2 for 2 weeks. On each 96-well plate, control wells containing no test compound but the same concentration of DMSO, i.e. untreated cells, were included and used as reference for the determination of the effect of the test compounds on the cells, and wells containing an internal reference compound at a concentration of 10 μM were included and used as positive control and for standardizing the results. Chondrocyte differentiation medium and the compounds were exchanged twice weekly until harvest of the pellets.
For harvest of the pellets, medium was removed and the pellet was homogenized by enzymatic digestion. 100 μl of protease solution containing 0.4 mg/ml papain, 50 mM sodium phosphate, 4 mM EDTA and 0.48 mg/ml L-cysteine was added to the pellet in each well of a 96-well plate, the plate was sealed with a plate sealer foil (SILVERseal, Greiner Bio-One) and incubated for 4 to 6 hours at 65° C. with agitation.
The concentration of proteoglycan (aggrecan) was determined by quantification of the sulfated glycosaminoglycan side chains of aggrecan using the Blyscan assay (Kit from Biocolor). Aliquots of the papain-digest were transferred to 400 μl of Blyscan dye solution and incubated at room temperature for 45 min with agitation (1200 rpm). The mixture was centrifuged at 3760×g for 45 min, the supernatant was discarded, and the stained pellet was redissolved in 400 μl of Blyscan dissociation reagent by rotation until the precipitate completely resolved. Optical density was measured at 656 nm using a Tecan Saphire2 instrument, and the amount of proteoglycan determined against a standard curve with chondroitin-4-sulfate.
Induction of proteoglycan (aggrecan) was calculated for each compound concentration relative to the control (untreated cells, i.e. no test compound added), and an EC50 value (effective concentration 50 (in μM (micromollliter)), i.e. the compound concentration at which the effect of the compound on proteoglycan (aggrecan) induction reaches 50% of the maximum induction) was calculated using a sigmoidal signal fit procedure. […]

SMILES	EC50 (ATDC5 cells)	Emax (ATDC5 cells)	EC50 [1]	Emax [1]
Cc1nccc2c1[nH]c1c(-c3cccc(N4CCOCC4)c3)cc(Cl)cc12 [Example 247, 6-Chloro-1-mehtyl-8-(3-morpholin-4-yl-phenyl)-9H-pyrido[3,4-b]indole]	> 3.3 µM	< 20%	3.8 µM	> 200%
Cc1nccc2c1[nH]c1c(-c3cccc(C=O)c3)cc(Cl)cc12 [Example 250, 3-(6-Chloro-1-methyl-9H-pyrido[3,4-b]indol-8-yl)-benzaldehyde]	> 3.3 µM	50 to 80%	4.9 µM	100 to 200%
Cc1nccc2c1[nH]c1c(-c3cc(C(F)(F)F)cc(C(F)(F)F)c3)cc(Cl)cc12 [Example 251, 8-(3,5-Bis-trifluoromethyl-phenyl)-6-chloro-1-methyl-9H-pyrido[3,4-b]indole]	> 10 µM	< 20%	9.1 µM	40 to 100%
CCn1c2c(-c3ccc(OCC4(C)COC4)cc3)cc(Cl)cc2c2ccnc(C)c21 [Example 256, 6-Chloro-9-ethyl-1-methyl-8-[4-(3-methyl-oxetan-3-ylmethoxy)-phenyl]-9H-pyrido[3,4-b]indole]	0.16 µM	> 80%	1.3 µM	> 200%
Cc1nccc2c1[nH]c1c(-c3ccc(C(=O)NCCN(C)C)cc3)cc(Cl)cc12 [Example 264, 4-(6-Chloro-1-methyl-9H-pyrido[3,4-b]indol-8-yl)-N-(2-dimethylamino-ethyl)-benzamide]	> 1.1 µM	20 to 50%	1.5 µM	40 to 100%
Cc1nccc2c1[nH]c1c(-c3cccc(C(=O)NCCN(C)C)c3)cc(Cl)cc12 [Example 265, 3-(6-Chloro-1-methyl-9H-pyrido[3,4-b]indol-8-yl)-N-(2-dimethylamino-ethyl)-benzamide]	> 1.1 µM	< 20%	3.8 µM	< 40%
Clc1cc(-c2cnn(Cc3cccnc3)c2)c2c(c1)c1ccncc1n2CC1CC1 [Example 288, 6-Chloro-9-cyclopropylmethyl-8-(1-pyridin-3-ylmethyl-1H-pyrazol-4-yl)-9H-pyrido[3,4-b]indole]	0.52 µM	> 80%	1.2 µM	> 200%

Continued, in another order:

EC50 (ATDC5 cells)	SMILES	Emax (ATDC5 cells)	EC50 [1]	Emax [1]
> 3.3 µM	Cc1nccc2c1[nH]c1c(-c3cccc(C(O)c4ccccn4)c3)cc(Cl)cc12 (stereo not shown) [Example 258, [3-(6-Chloro-1-methyl-9H-pyrido[3,4-b]indol-8-yl)-phenyl]-pyridin-2-yl-methanol]	< 20%	8.2 µM	40 to 100%
> 1.1 µM	Cc1nccc2c1[nH]c1c(-c3ccc(OCc4nccc5ccccc45)cc3)cc(Cl)cc12 [Example 270, 6-Chloro-8-[4-(isoquinolin-1-ylmethoxy)-phenyl]-1-methyl-9H-pyrido[3,4-b]indole]	20 to 50%	4.3 µM	40 to 100%
> 3.3 µM	Cc1nccc2c1[nH]c1c(-c3cccc(OCc4nccn4C)c3)cc(Cl)cc12 [Example 271, 6-Chloro-1-methyl-8-[3-(1-methyl-1H-imidazol-2-ylmethoxy)-phenyl]-9H-pyrido[3,4-b]indole]	20 to 50%	4.9 µM	> 200%
